According to patent publication US9931679B2, “Method for cleaning hard surfaces” (KIMBERLY-CLARK WORLDWIDE, INC., priority 2013, dated 2018):

Test system: Pseudomonas aeruginosa (ATCC 27853)
Assay: Zone of Inhibition Test (AATCC 147-1998, modified)
Assay type: cell-based
Settings: diameter of inhibited colony formation; 1.5 by 1.5 cm test material on inoculated agar plate, 48 hours at ambient temperature
Method: Zone of inhibition testing with a variety of gram negative and gram positive bacteria was performed. The test material was brought into contact with a known amount of test microorganisms on an agar plate for 48 hours at ambient temperature. At the end of the contact time the diameter of inhibited colony formation (zone of inhibition) surrounding the test material was measured. […] Referenced method AATCC 147-1998 “Antibacterial Activity Assessment of Textile Materials: Parallel Streak Method” with changes for following Zone of Inhibition procedure (AATCC is “American Association of Textile Chemists and Colorists” located in Research Triangle Park, N.C.): Organisms used in this study were Escherichia coli (ATCC 11229)/Staphylococcus aureus (ATCC 6538)/Pseudomonas aeruginosa (ATCC 27853) (ATCC is “American Type Culture Collection” an organization in Manassas, Va.). Washed cells were diluted in Butterfield's Phosphate buffer to a target titer of approximately 10^8 colony forming units (CFU)/mL. Agar plates for testing were brought to room temperature prior to inoculation. A sterile applicator swab was placed in cell suspension and excess fluid was expressed using the side of the centrifuge tube. […] At the end of the contact time, the diameter of inhibited colony formation (zone of inhibition) surrounding the test material was measured.

CN[C@H](CC(C)C)C(=O)N[C@H]1C(=O)N[C@@H](CC(N)=O)C(=O)N[C@H]2C(=O)N[C@H]3C(=O)N[C@H](C(=O)N[C@H](C(=O)O)c4cc(O)cc(O)c4-c4cc3ccc4O)[C@H](O)c3ccc(c(Cl)c3)Oc3cc2cc(c3O[C@@H]2O[C@H](CO)[C@@H](O)[C@H](O)[C@H]2O[C@H]2C[C@](C)(N)[C@H](O)[C@H](C)O2)Oc2ccc(cc2Cl)[C@H]1O [Positive Control, vancomycin]
P. aeroginosa ZOI* (cm): 1.9 cm
